Patent publication US20070010463A1, “Remedies for diseases caused by strengthened vascular smooth muscle using 14-membered ring macrolid compounds” (priority 2003, published 2007)
Where two headings read alike, the source gives them in different places.

How the values were obtained:
[1] = tested on: human coronary vascular smooth muscle cells (CASMCs); assay: Inhibition experiment of the proliferation of CASMCs (WST-1 formazan assay, absorbance 450 nm); type: cell-based
Method: The CASMCs were purchased from Clonetics Co., and cultured at 37° C., 5% CO2 using an attached culture kit (SmGM-2) in a culture medium comprising 5% fetal bovine serum (FBS), 2 ng/ml human basic fibroblast growth factor (b-FGF), 5 μg/ml bovine insulin, and 0.5 ng/ml human epidermal growth factor.
The CASMCs were cultured in a 96-well plate as in the Example 1 so that about 70˜80% of the area of each well was occupied by the cells, then put into a nutrition-depletion state for 24 hours under a non-serum condition. Roxythromycin (RXM) was then added as a test compound to the culture medium to give various concentration (0.1, 1.0, 10, 100 μg/ml) and the cells were cultured further for 24˜72 hours. The degree of growth of the cells was assayed at each elapsed time by formazan-formation coloring test with WST-1 agent using Takara Premix WST-1 Cell Proliferation Assay System Kit. Actually, Premix WST-1 was added 10 μl each followed by detection of absorbance at 450 nm by means of a plate reader.
The same experiments were conducted using other anti-bacterial and anti-fungal agents.

[2] = tested on: human coronary vascular smooth muscle cells (CASMCs); assay: Cell cycle analysis of CASMCs by flow cytometry (propidium iodide); type: cell-based; conditions: RXM 10 μg/ml, FIG. 3
Method: A further experiment was done using a flow cytometry in order to study when the RXM's direct inhibition activity of the proliferation of CASMCs was effected in a cell cycle.
The flow cytometry method was carried out in accordance with the following procedures and conditions.
The cells were fixed with 70% ethanol for 30 min and incubated with RNase (5 μg/ml) for 30 min. They were then incubated with propidium iodide (10 μg/ml) for 30 min, followed by detection with FACScan (Becton Dickinson Co.).
The transition ratio of the cell cycle was obtained by DNA histogram analysis with ModFit LT software, and shown as % for the total cells.

[3] = tested on: phosphorylated Rb (retinoblastoma gene products); assay: Western blot analysis of phosphorylated Rb in mitogen-stimulated CASMCs; type: cell-based, human; conditions: RXM 1-10 μg/ml, FIG. 4
Method: It was analyzed whether or not the RXM's inhibition of the stage from G1 phase to S phase of CASMCs was based on the inhibition of phophorylation of Rb (retinoblastoma gene products) that was supposed to be an essential intracellular molecule for transition in the cell cycle. The analysis was carried out using phosphorylated Rb as a marker by means of Western blot with a monoclonal antibody specifically recognizing phosphorylated Rb (Cell Signaling Technology Co.).
As a level of phosphorylated Rb was so low in normal conditions that it could not be detected by Western blot under normal conditions, the analysis was actually done after 5% FBS, 2 ng/ml human b-FGF, 5 μg/ml bovine insulin, and 0.5 ng/ml human epidermal growth factor had been added to the culture medium in order to stimulate CASMCs with mitogens up to an activated state and to increase an amount of the expressed phosphorylated Rb.
Western blot was carried out as follows. After the completion of SDS gel electrophoresis, the resulting bands were transferred to PVDF membrane, blocked with dry milk, incubated successively with a first antibody (anit-phosphorylated Rb rabbit antibody) and a labeled second antibody (anti-rabbit IgG mouse antibody), developed using alkaline phosphatase immuno blot kit and determined by means of a densitometer. […]

CDKIs-p27 = assay: Western blot analysis of CDKIs-p27 expression in mitogen-stimulated CASMCs; type: cell-based, human; conditions: RXM 1-10 μg/ml, under stimulation with the mitogens, FIG. 5
Method: (§1) Western blot was carried out as follows. After the completion of SDS gel electrophoresis, the resulting bands were transferred to PVDF membrane, blocked with dry milk, incubated successively with a first antibody (anit-phosphorylated Rb rabbit antibody) and a labeled second antibody (anti-rabbit IgG mouse antibody), developed using alkaline phosphatase immuno blot kit and determined by means of a densitometer. The operating conditions in these steps were standard ones known to those skilled in the art.
(§2) In order to examine what kind of modification of intracellular molecules was responsible for the RXM's inhibition of the production of phosphorylated Rb in CASMCs, the analysis was carried out by means of Western blot in the same conditions as in Example 5, focusing attention on […] (CDKIs) that was known to control the intracellular molecules, especially on its major molecules, CDKIs-p27 and CDKIs-p21.
(§3) As an expresssion level of both CDKIs-p27 and CDKIs-p21 was so low in a normal cell that it could not be detected by Western blot, the analysis was actually done on the cells activated after stimulation with the mitogens in the same way as in Example 5.

CDKIs-p21 = assay: Western blot analysis of CDKIs-p21 expression in mitogen-stimulated CASMCs; type: cell-based, human; conditions: RXM 1-10 μg/ml, under stimulation with the mitogens, FIG. 5
Method: as §1, §2, §3

[4] = background statement; cited from earlier work
mouse = conditions: cited from earlier work
[5] = 50 μg/ml, any time between 24 and 72 hours, FIG. 2

## C[C@@H]1[C@H](O)[C@@H](C)/C=C/C=C/C=C/C=C/C=C/C=C/C=C/[C@H](O[C@@H]2O[C@H](C)[C@@H](O)[C@H](N)[C@@H]2O)C[C@@H]2O[C@](O)(C[C@@H](O)C[C@@H](O)[C@H](O)CC[C@@H](O)C[C@@H](O)CC(=O)O[C@H]1C)C[C@H](O)[C@H]2C(=O)O [Amphotericin B]
[1]; 50 ng/ml, any time between 24 and 72 hours, FIG. 2
  inhibition of the proliferation of CASMCs: none

## CC1(C)S[C@@H]2[C@H](NC(=O)[C@H](N)c3ccccc3)C(=O)N2[C@H]1C(=O)O [Ampicilin]
[1]; [5]
  inhibition of the proliferation of CASMCs: none

## CC[C@H]1OC(=O)[C@H](C)[C@@H](O[C@H]2C[C@@](C)(OC)[C@@H](O)[C@H](C)O2)[C@H](C)[C@@H](O[C@@H]2O[C@H](C)C[C@H](N(C)C)[C@H]2O)[C@](C)(O)C[C@@H](C)/C(=N\OCOCCOC)[C@H](C)[C@@H](O)[C@]1(C)O [RXM, roxithromycin]
[1]; RXM 1 μg/ml, any time during the observation (24-72 hours), vs RXM non-added group, FIG. 1A
  inhibition of the proliferation of CASMCs: inhibited the proliferation of CASMCs to a statistically significant level
[1]; RXM 10 μg/ml, any time during the observation (24-72 hours), vs RXM non-added group, FIG. 1A
  inhibition of the proliferation of CASMCs: inhibited the proliferation of CASMCs to a statistically significant level
[1]; range of 1-100 μg/ml, drug-dependence manner, vs RXM non-added group, FIG. 1B
  inhibition of the proliferation of CASMCs: inhibited the proliferation of CASMCs to a statistically significant level in a drug-dependence manner
[2]
  inhibition of the stage from G1 phase to S phase in a cell cycle: inhibited a stage from G1 phase to S phase in a cell cycle to a statistically significant level
  inhibition of the stage from S phase to G2/M phase: did not inhibit
[3]
  production of phosphorylated Rb in CASMCs: clearly inhibited
CDKIs-p27
  expression of CDKIs-p27 in CASMCs: clearly increased in a RXM concentration-dependency manner
CDKIs-p21
  expression of CDKIs-p21: no clear difference was observed

## CO[C@H]1C[C@@H]2CC[C@@H](C)[C@@](O)(O2)C(=O)C(=O)N2CCCC[C@H]2C(=O)O[C@H]([C@H](C)C[C@@H]2CC[C@@H](O)[C@H](OC)C2)CC(=O)[C@H](C)/C=C(\C)[C@@H](O)[C@@H](OC)C(=O)[C@H](C)C[C@H](C)/C=C/C=C/C=C/1C [Rapamycin, rapamycin]
[4]
  cytotoxicity: strong cytotoxicity

## CC[C@H]1OC(=O)[C@H](C)[C@@H](O[C@H]2C[C@@](C)(OC)[C@@H](O)[C@H](C)O2)[C@H](C)[C@@H](O[C@@H]2O[C@H](C)C[C@H](N(C)C)[C@H]2O)[C@](C)(O)C[C@@H](C)C(=O)[C@H](C)[C@@H](O)[C@]1(C)O.Cl [erythromaycin hydrochloride, erythromaycin]
mouse; interperitoreal
  Acute toxicity (mouse LD50): 490 ± 30.4 mg/kg
mouse; vein
  Acute toxicity (mouse LD50): 425.6 ± 15.7 mg/kg

## Gentamicin
[1]; [5]
  inhibition of the proliferation of CASMCs: none
